Tests used:
immature female rats [1] = experiment: Follicle maturation in vivo: co-administration with sub-optimal FSH, then ovulatory hCG, oocytes in oviduct counted; parameters: species or system rat; conditions: FIG. 3
Description: Mature ovarian follicles generated in immature female rats by treatment with a sub-optimal dose of FSH (1.08 IU/rat/injection; bid×3 days) with and without co-administration of Compound 1 (0.1, 1, 10, and 50 mg/kg/injection: bid×3 days). […] The PDE inhibitors were given in conjunction with sub-optimal doses of FSH.
All injections were subcutaneously administered. […] Results are expressed as mean plus or minus standard deviations. […] As also noted in FIG. 3, a PDE inhibitor (Compound 1) inhibited (rather than stimulated) both ovulation administered at 50 mg/kg.

immature female rats [2] = experiment: In vivo ovulation model: FSH-matured follicles in immature rats, oocytes in oviduct counted 18 hours after administration; parameters: species or system rat; conditions: FSH pretreated rats
Source text: The role of FSH in any ovulation induction regimen is for promoting follicular development and maturation, not ovulation induction.
All injections were subcutaneous. Results are expressed as mean plus or minus standard deviations. […] The effects of Compound 1, a known PDE inhibitor, are shown.
Data represent average number of oocytes in oviducts of all rats in each group and frequency of ovulating rats. […] Results are expressed as mean plus or minus standard deviations.
Data represent average number of oocytes in oviducts of all rats in each group and frequency of ovulating rats. Results are expressed as mean plus or minus standard deviations.
Following FSH induced follicular maturation (2.16 IU/rat/injection; bid×2 days) Compound 2 was either injected subcutaneously (subcutis) or administered by oral gavage. Ovulation was determined 18 hours after Compound 2 administration by counting oocytes in oviduct. Data represent average number of oocytes in oviducts of all rats in each group and frequency of ovulating rats. Results are expressed as mean plus or minus standard deviations.
Following FSH induced follicular maturation (2.16 IU/rat/injection; bid×2 days) […] was either injected subcutaneously (subcutis) or administered by oral gavage. Ovulation was determined 18 hours after Compound 2 administration by counting oocytes in oviduct. Data represent average number of oocytes in oviducts of all rats in each group and frequency of ovulating rats. Results are expressed as mean plus or minus standard deviations.

[3] = tested on: rat ovarian granulosa cells; experiment: Rat ovarian granulosa cell cAMP levels in vitro (cAMP RIA of conditioned media); type: cell-based; conditions: 25 micromolar compound with sub-effective (0.1 pM) gonadotropin, 48 hrs, FIG. 2
Description: Ovaries were removed from immature 25 day old, hypophysectomized, diethylstilbesterol treated Sprague-Dawley rats. The ovaries were repeatedly punctured with 27 gauge needles to liberate granulosa cells from the follicles. Cells were washed and re-suspended in McCoys SA media+0.1% BSA+2 μM androstenedione. Viable cells in number of 100,000 were loaded into 6-well tissue culture dishes in a 1.0 ml volume (with Compound 1 and Compound 2 at a concentration of 25 micromolar, either alone or in conjunction with a low, 0.1 pM dose of gonadotropin). Plates were incubated in a 37° C. incubator, 100% humidity, 5.0% CO2 for 48 hrs. Conditioned media were assayed in a cAMP specific radioimmunoassay (RIA). Results are expressed as mean plus or minus standard deviations.

immature rats = experiment: Ovulation and fertility in FSH/PMSG pretreated immature rats; type: in vivo, rat; conditions: single subcutaneous injection, FIG. 10
Description: Follicular maturation was induced in immature rats with FSH (4.33 IU/rat/injection; bid×2 days) and Pregnant Mare's Serum Gonadotropin (PMSG) (1.5 IU/rat/injection; bid X 2 days). […] FSH and PMSG induced rats were then treated with either Compound 2 (12 rats) or vehicle (12 rats) by subcutaneous administration. In one cohort of rats (6 rats per treatment), ovulation was determined 18 hours after Compound 2 or vehicle administration by counting oocytes in oviduct. To assess fertility, another cohort of rats (6 rats per treatment) were individually placed overnight in a cage together with a single adult male rat of proven fertility. The next day, male rats were removed and the females were caged together by group until the day of parturition. The number of live full-term pups observed at the time of parturition was recorded. […] Results for both ovulation and live pups are expressed as mean plus or minus standard deviations.

[4] = single subcutaneous injection co-administered with sub-effective dose of hCG
[5] = subcutaneous, compound alone without hCG
[6] = oral gavage, compound alone without hCG

SMILES	ovulation (oocytes in oviduct) (immature female rats [1]; 50 mg/kg/injection bid x 3 days s.c. with sub-optimal FSH (1.08 IU), ovulatory hCG 20 IU)	ability of a sub-optimal dose of FSH to prepare follicles to ovulate (immature female rats [1]; increasing doses 0.1, 1, 10, 50 mg/kg/injection bid x 3 days s.c.)	ovulation (oocytes in oviduct) (immature female rats [2]; [4])	ovulation (oocytes in oviduct) (immature female rats [2]; [5])	cAMP levels [3]	number of live full-term pups at parturition (immature rats; FSH/PMSG pretreated rats mated overnight)	ovulation (oocytes in oviduct) (immature rats; FSH/PMSG pretreated rats, 18 hours)	ovulation (oocytes in oviduct) (immature female rats [2]; [6])
COc1ccc([C@]2(C#N)CC[C@@H](C(=O)O)CC2)cc1OC1CCCC1 [Compound 1, Cis-4-cyano-4-(3-(cyclopentyloxy)-4-methoxyphenyl)cyclohexane-1-carboxylic acid]	inhibited	failed to enhance	induction of ovulation	induction of ovulation	significant increase in cAMP levels	–	–	–
COc1ccc(C(=O)Nc2c(Cl)cncc2Cl)cc1OC1CCCC1 [Compound 2, 3-(Cyclopentyloxy)-N-(3,5-dichloropyridin-4-yl)-4-methoxybenzamide]	–	–	–	induction of ovulation	significant increase in cAMP levels	increased number of live pups	induction of ovulation	induction of ovulation
CCOc1cc2cc(CO)c(CO)c(-c3ccnc(-n4nc(-c5cccnc5)c5ccccc5c4=O)c3)c2cc1OCC.Cl [Compound 3, 2-(4-(6,7-Diethoxy-2,3-bis(hydroxymethyl)naphthalen-1-yl)pyridin-2-yl)-4-(3-pyridyl)pthalazin-1(2H)-one hydrochloride]	–	–	–	induction of ovulation	–	–	–	induction of ovulation
Clc1nc2c(N3CCCC3)nc(N3CCNCC3)nc2nc1NCc1ccccc1 [Compound 4, 7-Benzylamino-6-chloro-2-piperazino-4-pyrrolidinopteridine]	–	–	induction of ovulation	little or no ovulation	–	–	–	–

From patent US7803760B2, “Methods of inducing ovulation” (Merck Serono SA, priority 2000, dated 2010)
